Counter-ions that a name gives are not always drawn.
Tests used:
[1] = system: Mice With Acrylamide Induced Sensory Neuropathy; assay: Tail Flick Test using mice with acrylamide-induced sensory neuropathy; assay type: in vivo, mouse (male ICR strain); conditions: CDP-choline·Na 100 mg/kg oral once a day for 1 week
Method: Experiment: Tail Flick Test Using Mice With Acrylamide Induced Sensory Neuropathy (In Vivo) (1) Preparation of Mouse With Acrylamide-induced Sensory Neuropathy Acrylamide (2.5 mg/mice) dissolved in injectable physiological saline was intraperitoneally administered to male ICR strain mice (7-week-old, 10 per group) 5 times a week for 1 week to induce sensory neuropathy. (2) Administration of CDP-choline CDP-choline·Na was dissolved in distilled water, and oral administration thereof (100 mg/kg per dose) was started on the same day as acrylamide once a day for 1 week. (3) Tail Flick Test A photothermic stimulation was given to the tail of mouse, and the reaction latency up to the motion of the tail upon sensing the heat was measured. The measurement results of the reaction latency of a control group, an acrylamide administration group and an acrylamide administration group with administration of CDP-choline (100 mg/kg) are shown in FIG. 2.

[2] = system: Vincristine-induced Sensory Neuropathy Mouse; assay: Tail Flick Test using vincristine-induced sensory neuropathy mouse; assay type: in vivo, mouse (male ICR strain); conditions: CDP-choline·Na 500 mg/kg oral once a day for 10 weeks
Method: Experiment: Tail Flick Test Using Vincristine-induced Sensory Neuropathy Mouse (In Vivo) (1) Preparation of Mouse with Vincristine-induced Sensory Neuropathy Vincristine (0.05 mg/kg for the first time, 0.125 mg/kg for the second time and the following) dissolved in injectable physiological saline was intraperitoneally administered to male ICR strain mice (7-week-old, 10 per group) twice a week for 10 weeks to induce sensory neuropathy. (2) Administration of CDP-choline CDP-choline·Na was dissolved in distilled water, and oral administration thereof (500 mg/kg per dose) was started on the same day as vincristine once a day for 10 weeks. (3) Tail Flick Test A photothermic stimulation was given to the tail of mouse, and the reaction latency up to the motion of the tail upon sensing the heat was measured. The measurement results of the reaction latency of a control group, a vincristine administration group and a vincristine administration group with administration of CDP-choline (500 mg/kg) are shown in FIG. 1.

Q: For `C[N+](C)(C)CCOP(=O)(O)OP(=O)([O-])OC[C@H]1O[C@@H](n2ccc(N)nc2=O)[C@H](O)[C@@H]1O` [CDP-choline, cytidine 5′-diphosphocholine-monosodium salt], which “suppression of acrylamide-induced sensory neuropathy (hyperesthesia-like symptom)” value ([1]; started on the same day as acrylamide i.p. 5 times a week, 10 mice per group) is on record?
A: almost completely suppressed

Q: And the “reaction latency in Tail Flick Test” value ([1]; acrylamide-treated mice, compared to control group, FIG. 2)?
A: of the same level as the control group

Q: And the “suppression of vincristine-induced sensory neuropathy (hyperesthesia-like symptom)” value ([2]; started on the same day as vincristine i.p. twice a week, 10 mice per group)?
A: almost completely suppressed

Q: What about the “reaction latency in Tail Flick Test” value ([2]; vincristine-treated mice, compared to control group, FIG. 1) of the same molecule?
A: of the same level as the control group

Source: patent publication US20060094685A1, “Medicinal composition for drug-induced neuropathy” (priority 2002, published 2006)
